Reference: US20110263693A1, “CELASTROL, GEDUNIN, AND DERIVATIVES THEREOF AS HSP90 INHIBITORS” (DANA-FARBER CANCER INSTITUTE, INC., priority 2006, published 2011)
Residues, ends and D or L forms follow the SMILES beside them. *: point of attachment. Cbz = O=C(OCc1ccccc1)*

How the values were obtained:
gedunin signature = assay: Connectivity Map query with the gedunin signature; type: cell-based, human; parameters: key to gedunin score (connectivity score): connectivity score, based on Kolmogorov-Smirnov statistic; conditions: for gedunin score (connectivity score): enrichment of the gedunin signature (20 μM gedunin at 6 hours, LNCaP) in the compound's Connectivity Map profiles, 6 hr treatment; for gedunin rank: rank by gedunin score among 164 Connectivity Map compounds
Description: (§1) Indeed, a major challenge in cell-based chemical biology and chemical genomics is the identification of compounds' targets (Gardner et al., 2003). We hypothesized that gene expression signatures could be used to identify compound action based on the similarity of such compound-induced signatures to signatures of existing drugs of known mechanism. We therefore employed a collection of gene expression profiles of drug-treated cell lines that was developed in our lab, termed the Connectivity Map (Lamb et al., 2006). This database comprises 453 genome-wide Affymetrix expression profiles derived from the treatment of human cell lines with 164 small molecules, primarily FDA-approved drugs. A 6 hr treatment time was chosen in an attempt to capture the primary, and potentially mechanistic, effects of the compounds rather than the downstream phenotypic consequences.
(§2) In order to use the Connectivity Map to gain insight into celastrol and gedunin function, we first defined a gene expression signature of celastrol and gedunin activity. The expression signatures of celastrol and gedunin were derived by expression profiling of RNA from LNCaP cells treated with celastrol (1.25 μM), gedunin (20 μM), and vehicle (DMSO) for 6 hr; signatures were defined using comparative marker selection to identify transcripts that distinguished between the compound- and vehicle-treated profiles by the signal-to-noise (SNR) metric. The enrichment of these signatures in the gene expression profiles of the Connectivity Map database was then assessed using a gene enrichment metric, the connectivity score, based on the Kolmogorov-Smirnov statistic (Lamb et al., 2003).
(§3) The celastrol and gedunin signatures were developed from RMA-processed microarray data from LNCaP cells treated with 1.25 μM celastrol or 20 μM gedunin for 6 hours. Comparative marker selection was used to identify markers that distinguished celastrol- and/or gedunin-treated samples from vehicle-treated samples by the median SNR (Golub et al., 1999). The top 50 markers that increased and decreased relative to vehicle-treated controls were used as the signatures.
(§4) The current version of the Connectivity Map data set (build01) contains genome-wide expression data for 453 treatment and vehicle control pairs, representing 164 distinct small molecules. Cell treatments and Affymetrix profiling were predominantly carried out in MCF7 cells with 6 hr treatments as detailed (Table 4) (Lamb et al., 2006). Enrichment of the induced and repressed genes of a signature within each Connectivity Map treatment profile was estimated with a metric based on the Kolmogorov-Smirnov statistic as described (Lamb et al., 2003, Lamb et al., 2006). Connectivity Map data are available at www.broad.mit.edu/cmap/ and GEO (accession number GSE5258).
(§5) For the celastrol and gedunin signatures, RMA-processed data was filtered and thresholded (min fold change=2, min absolute change=50, floor=10, ceiling=16000). Comparative marker selection (GenePattern) was used to identify markers that distinguished celastrol- and/or gedunin-treated samples from vehicle-treated samples by the median SNR. The top fifty markers that increased and decreased relative to vehicle treated controls were used as the celastrol, gedunin, or joint celastrol/gedunin signatures.
(§6) The current version of The Connectivity Map dataset (build01) contains genome-wide expression data for 453 treatment and vehicle control pairs, representing 164 distinct small molecules. Cell treatments were predominantly carried out in the MCF7 cell line for 6 h as detailed in Table 4. Affymetrix profiling was then carried out as described (Lamb et al., 2006).

celastrol signature = assay: Connectivity Map query with the celastrol signature; type: cell-based, human; parameters: key to celastrol score (connectivity score): connectivity score, based on Kolmogorov-Smirnov statistic; conditions: for celastrol score (connectivity score): enrichment of the celastrol signature (1.25 μM celastrol at 6 h, LNCaP) in the compound's Connectivity Map profiles, 6 hr treatment; for celastrol rank: rank by celastrol score among 164 Connectivity Map compounds
Description: as §1, §2, §3, §4, §5, §6

Compound | gedunin score (connectivity score) (gedunin signature) | gedunin rank (gedunin signature) | celastrol score (connectivity score) (celastrol signature) | celastrol rank (celastrol signature)
Nc1c(O)cccc1C(=O)CC(N)C(=O)O (racemic) [3-hydroxy-DL-kynurenine] | 0 | 96 | 0 | 136
CCCCCCCCCCCCCCCC(=O)N[C@H](CN1CCOCC1)[C@H](O)c1ccccc1 (racemic) [DL-PPMP] | 0 | 110 | 0 | 138
Oc1cc(O)c2c(c1)OC(c1ccc(O)c(O)c1)C(O)C2 (single isomer, unassigned; (-)) [(−)-catechin] | 0.457 | 24 | 0 | 113
Oc1cccc2c(O)nccc12 [1,5-isoquinolinediol] | 0 | – | −0.608 | –
O=CC[C@@H](O)[C@H](O)[C@H](O)CO [2-deoxy-D-glucose] | 0.378 | – | 0 | –
NC(=O)c1cccc(N)c1 [3-aminobenzamide] | 0 | – | −0.587 | –
O=C1NC(=O)c2cc(Nc3ccccc3)c(Nc3ccccc3)cc21 [4,5-dianilinophthalimide] | 0 | – | 0 | –
CCCCC/C=C/C=C1/C(=O)C=C[C@@H]1C/C=C\CCCC(=O)O [15-delta prostaglandin J2] | 0.565 | 9 | 0.76 | 7
C[C@@H]1NC(=O)[C@H]2CCCN2C(=O)[C@H](CCCCCC(=O)[C@@H]2CO2)NC(=O)[C@@H](C)NC1=O [HC toxin] | 0.526 | 15 | 0 | 90
CC(=O)OCOC(c1ccc2ccccc2c1)P(=O)(OCOC(C)=O)OCOC(C)=O (centres unmarked) [HNMPA-(AM)3] | 0.365 | 36 | 0 | 103
O=c1cc(N2CCOCC2)oc2c(-c3ccccc3)cccc12 [LY-294002] | 0 | – | −0.512 | –
CC(C)C[C@@H](C=O)NC(=O)[C@H](CC(C)C)NC(=O)[C@H](CC(C)C)NC(=O)OCc1ccccc1 [MG-132] (Cbz-Leu-Leu-Leu-aldehyde) | 0.912 | – | 0.902 | –
CC(C)c1ccc2c(c1)c(SC(C)(C)C)c(CC(C)(C)C(=O)O)n2Cc1ccc(Cl)cc1 [MK-886] | −0.336 | 155 | 0 | 94
O=C(O)c1ccccc1Nc1ccccc1 [N-phenylanthranilic acid] | −0.472 | – | 0 | –
Cc1nc2c(O)cccc2c(=O)[nH]1 [NU-1025] | −0.222 | 152 | −0.362 | 156
CS(=O)(=O)c1ccc(-n2nc(C(F)(F)F)cc2-c2ccc(F)cc2)cc1 [SC-58125] | 0.09 | – | −0.112 | –
C/C(=C\c1ccc(C(=O)O)cc1)c1ccc2c(c1)C(C)(C)CCC2(C)C [TTNPB] | 0.095 | 74 | 0 | 97
N#CC(=C(N)Sc1ccccc1)C(C#N)=C(N)Sc1ccccc1 [U0125] | 0 | 122 | 0 | 106
C[C@@H](N)[C@H]1CC[C@H](C(=O)Nc2ccncc2)CC1 [Y-27632] | −0.353 | – | 0 | –
CN1CCN(CCCN2c3ccccc3Sc3ccc(C(F)(F)F)cc32)CC1 [trifluoperazine, reference compound] | 0.559 | – | – | –
